Measurements taken from patent US20040048283A1, “Novel method for screening bacterial transcription modulators” (priority 2000, published 2004).
Entries after “also recorded” stand apart in the source; their conditions may differ.

Key:
S aureus = test: inhibition of growth in solid medium (inhibition diameter); format: cell-based; settings: for diameter of inhibition, S aureus: solid medium
Method: (§1) A preculture of the strains E. coli K12, S. aureus and S. epidermis in Mueller Hinton Broth medium (Mueller and Hinton, 1941) is carried out at 37° C., until an optical density of 0.1 at 650 nm is obtained. 100 μl of the preculture is added to 10 ml of the medium: 0.1% agarose, 10 mM sodium phosphate pH 7.4; 0.3 mg/ml trypcase-soy; 100 mM NaCl.
(§2) The mixture is poured into a […] Petri dish. Wells are made in the gelose and 5 μl of the solutions to be tested, containing the screened products, are placed in each well. The dishes are left at ambient temperature for 2 hours, then 10 ml of the medium (1% agarose; 10 mM sodium phosphate—pH 7.4-6% trypcase-soy) are poured into the Petri dish forming an overlay. After solidification, the dishes are incubated overnight at 37° C.
(§3) The antibacterial activity is evaluated by measuring the diameter of the bacterial growth inhibition of the zone at the centre of which the product was placed.

S epidermidis = test: as above; format: cell-based
Method: as §1, §2, §3

E. coli K12 = test: as above; format: cell-based; settings: for diameter of inhibition, K12: solid medium
Method: as §1, §2, §3

[1] = molecular target: assembly of the α, β and β′ subunits (Escherichia coli, UniProt P0A7Z4+P0A8T7+P0A8V2); test: specificity: assembly of RNA polymerase subunits; format: binding, E. coli
E. coli TG1 cells = test: inhibition of growth in microassay dish; format: cell-based; settings: FIG. 4; optical density at 650 nm after 12 hours at 37° C.
Method: FIG. 4 corresponds to the inhibition of the growth of E. coli TG1 cells by the abovementioned compound 5,988,031. This figure represents the optical density measured at 650 nm (y-axis) with reference to the concentration of the compound 5,988,031 in μg/ml (x-axis).
The E. coli TG1 cells, diluted according to the protocol described hereafter in the experimental part, are incubated with increasing concentrations of the compound 5,988,031. The growth of the bacteria is measured at 650 nm after incubation for 12 hours at 37° C. under stirring in a microassay dish.
The various compounds isolated are tested for their TG1 E. coli bacteria growth-inhibiting properties. Cells in stationary phase are diluted to {fraction (1/10,000)} in LB medium (tryptone 10 g; yeast extract 5 g; NaCl 5 g) and are transfected in a microassay dish (200 μl/well). The molecules are added to 10% DMSO, at a final concentration of 100 mg/ml. […] After incubation overnight at 37° C. under stirring, the optical density of each well at 650 nm is measured.

M. Luteus = test: antibiotic activity on other strains tested; format: cell-based; settings: concentration not given
[2] = molecular target: T1, bond between the RNA polymerase and the protein NusA (Escherichia coli, UniProt P0A7Z4+P0A8T7+P0A8V2); test: NusA-RNA polymerase bond test (ELISA-type complexation test); format: binding, E. coli
T1 construct: polyhistidine (C); made in house; host or cells: NusA: BL21 lambda DE3 E. coli cells (printed 'BL211amdaDE3'), pet21-type vector
Method: More precisely, the different compounds tested (from the family of 5,988,031) are incubated in the presence of core enzyme in a microassay dish on which the protein NusA is adsorbed at a concentration equal to 20 μg/ml.
The gene coding for the protein NusA and comprising a C-terminal polyhistidine tag was cloned in a pet21-type vector. After transfection in BL211amdaDE3 cells, the cells are cultured in LB medium at 37° C. under vigorous stirring. The production of protein is induced by the addition of 1 mM IPTG. After 3 hours' culture, the cells are recovered by centrifugation and lysed according to (Burgess et al., Biochemistry, 1975 October 21; 14(21): 4634-8). After centrifugation, the supernatant is passed over an Ni NTA agarose column (Quiagen) according to the supplier's recommendations. The protein NusA is stored at −80° C. in (20 mM tris HCl pH 8; 5 M guanidine chloride; 10 mM β-mercaptoethanol; 50% glycerol) at a concentration of 100 μM.
The test is based on the adsorption of NusA on an ELISA plate for 12 hours at 4° C. (6 pmoles of protein diluted in 100 μl of PBS per well on Nunc-immuno plates, Maxisorp.). The dilutions of protein and the buffers were optimized in order to reduce the non-specific bond of the RNA polymerase. […] The sigma70-RNA polymerase-antibody complex is detected with a substrate of peroxidase, O-phenylenediamine, or another appropriate medium. […]

[3] = molecular target: T2, bond between the core enzyme of the RNA polymerase and the protein σ^70 (Escherichia coli, UniProt P0A7Z4+P0A8T7+P0A8V2); test: sigma70-RNA polymerase bond test (ELISA-type complexation test); format: binding, E. coli
T2 construct: made in house
T2 sequence (P0A8T7 whole entry): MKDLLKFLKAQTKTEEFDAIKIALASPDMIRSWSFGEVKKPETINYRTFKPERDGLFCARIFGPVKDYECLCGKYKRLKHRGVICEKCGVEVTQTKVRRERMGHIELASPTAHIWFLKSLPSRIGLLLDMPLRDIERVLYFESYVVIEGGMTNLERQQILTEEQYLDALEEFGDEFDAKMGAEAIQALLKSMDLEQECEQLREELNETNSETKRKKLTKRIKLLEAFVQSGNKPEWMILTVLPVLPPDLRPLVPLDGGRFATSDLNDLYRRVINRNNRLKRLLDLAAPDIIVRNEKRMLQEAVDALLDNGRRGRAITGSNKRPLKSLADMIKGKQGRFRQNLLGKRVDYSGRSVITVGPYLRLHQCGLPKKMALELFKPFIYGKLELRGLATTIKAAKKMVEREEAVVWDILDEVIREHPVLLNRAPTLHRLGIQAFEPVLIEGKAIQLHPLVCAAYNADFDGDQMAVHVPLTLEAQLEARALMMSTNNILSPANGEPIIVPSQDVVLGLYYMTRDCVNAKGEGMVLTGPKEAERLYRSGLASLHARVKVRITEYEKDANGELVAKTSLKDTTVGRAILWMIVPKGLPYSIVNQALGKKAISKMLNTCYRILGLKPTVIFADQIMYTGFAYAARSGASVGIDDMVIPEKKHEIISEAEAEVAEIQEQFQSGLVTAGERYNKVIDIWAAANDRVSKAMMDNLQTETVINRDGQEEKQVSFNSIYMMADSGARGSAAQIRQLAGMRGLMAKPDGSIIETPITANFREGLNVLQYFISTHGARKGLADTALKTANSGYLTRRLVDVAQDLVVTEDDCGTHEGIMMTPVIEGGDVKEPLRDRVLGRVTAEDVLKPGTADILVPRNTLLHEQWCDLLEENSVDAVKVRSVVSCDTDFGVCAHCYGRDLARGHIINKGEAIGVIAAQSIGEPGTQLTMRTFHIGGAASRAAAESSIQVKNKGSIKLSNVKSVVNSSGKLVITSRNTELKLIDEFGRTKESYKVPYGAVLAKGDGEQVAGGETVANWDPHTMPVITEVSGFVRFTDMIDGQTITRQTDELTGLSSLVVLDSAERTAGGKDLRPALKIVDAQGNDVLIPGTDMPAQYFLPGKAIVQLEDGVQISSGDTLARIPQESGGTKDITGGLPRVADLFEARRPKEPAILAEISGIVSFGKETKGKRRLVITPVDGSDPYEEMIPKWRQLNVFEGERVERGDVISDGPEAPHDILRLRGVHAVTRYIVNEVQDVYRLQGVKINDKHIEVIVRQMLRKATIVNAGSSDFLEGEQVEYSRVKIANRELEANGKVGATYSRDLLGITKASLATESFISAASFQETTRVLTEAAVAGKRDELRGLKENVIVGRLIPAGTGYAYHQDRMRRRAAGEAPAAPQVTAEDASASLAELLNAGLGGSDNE
T2 sequence (P0A8V2 whole entry): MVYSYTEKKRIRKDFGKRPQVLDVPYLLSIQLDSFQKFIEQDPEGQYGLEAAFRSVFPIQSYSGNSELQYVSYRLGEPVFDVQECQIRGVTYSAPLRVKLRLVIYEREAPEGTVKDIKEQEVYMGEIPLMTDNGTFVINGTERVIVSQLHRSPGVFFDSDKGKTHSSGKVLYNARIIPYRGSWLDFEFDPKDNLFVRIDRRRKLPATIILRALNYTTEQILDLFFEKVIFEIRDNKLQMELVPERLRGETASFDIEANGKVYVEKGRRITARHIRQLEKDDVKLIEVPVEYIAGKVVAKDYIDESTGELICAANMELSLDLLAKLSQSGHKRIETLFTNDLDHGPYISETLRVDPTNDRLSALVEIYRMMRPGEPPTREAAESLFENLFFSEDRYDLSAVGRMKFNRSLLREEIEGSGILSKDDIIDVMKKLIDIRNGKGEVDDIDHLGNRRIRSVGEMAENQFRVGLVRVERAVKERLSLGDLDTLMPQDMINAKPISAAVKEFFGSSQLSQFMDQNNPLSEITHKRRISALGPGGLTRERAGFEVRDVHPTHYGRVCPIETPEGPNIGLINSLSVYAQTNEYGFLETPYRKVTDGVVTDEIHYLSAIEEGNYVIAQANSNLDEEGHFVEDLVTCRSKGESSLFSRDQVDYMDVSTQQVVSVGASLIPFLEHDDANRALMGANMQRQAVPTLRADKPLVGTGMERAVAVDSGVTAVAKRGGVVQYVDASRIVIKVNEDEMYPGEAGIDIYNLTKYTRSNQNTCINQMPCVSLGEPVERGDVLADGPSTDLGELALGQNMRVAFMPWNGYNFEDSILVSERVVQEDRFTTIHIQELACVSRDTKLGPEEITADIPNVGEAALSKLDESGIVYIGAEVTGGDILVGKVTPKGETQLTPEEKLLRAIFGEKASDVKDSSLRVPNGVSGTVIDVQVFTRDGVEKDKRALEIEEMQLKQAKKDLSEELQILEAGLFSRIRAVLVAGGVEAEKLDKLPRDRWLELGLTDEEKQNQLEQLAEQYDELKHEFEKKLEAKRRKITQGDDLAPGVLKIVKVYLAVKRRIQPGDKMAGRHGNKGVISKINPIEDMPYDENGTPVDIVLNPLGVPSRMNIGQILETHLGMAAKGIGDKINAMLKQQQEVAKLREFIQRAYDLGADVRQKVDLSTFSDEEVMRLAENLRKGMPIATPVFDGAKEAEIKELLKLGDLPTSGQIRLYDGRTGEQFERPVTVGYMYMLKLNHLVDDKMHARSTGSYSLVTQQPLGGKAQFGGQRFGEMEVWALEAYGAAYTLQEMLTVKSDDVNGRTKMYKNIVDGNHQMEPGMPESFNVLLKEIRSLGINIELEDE
T2 sequence (P0A7Z4 whole entry): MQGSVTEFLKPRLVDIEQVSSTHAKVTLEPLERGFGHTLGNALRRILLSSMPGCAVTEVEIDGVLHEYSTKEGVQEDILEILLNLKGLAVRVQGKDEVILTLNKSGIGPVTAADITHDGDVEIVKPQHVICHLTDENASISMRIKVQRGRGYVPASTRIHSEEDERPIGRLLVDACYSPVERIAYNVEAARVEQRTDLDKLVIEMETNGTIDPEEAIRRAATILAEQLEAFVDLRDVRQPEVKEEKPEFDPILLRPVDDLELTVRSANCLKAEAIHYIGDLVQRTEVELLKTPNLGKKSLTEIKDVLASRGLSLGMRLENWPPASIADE
Method: Thus, the different compounds tested are incubated in the presence of the core enzyme in a microassay dish on which the protein σ^70 is adsorbed, each well of the plate containing 1 μM of σ^70 during the adsorption phase.
The sigma70 proteins and the RNA polymerase of E. coli are expressed and purified under standard conditions (Burgess et al., Biochemistry, 1975, October 21; 14(21): 4634-8; Burgess R., Methods Enzymol 1996; 273: 145-9). The sigma70 protein is stored at −80° C. in (20 mM tris HCl pH 8; 5 M guanidine chloride; 10 mM β-mercaptoethanol; 50% glycerol) at a concentration of 100 μM. The core RNA polymerase is stored at −80° C. in (20 mM tris HCl pH 8, 100 mM KCl, 10 mM β-mercaptoethanol, 50% glycerol) at a concentration of 1 μM. The antipolymerase monoclonal antibody was obtained and purified by standard techniques (Short Protocols in Molecular Biology 2nd edition, John Wiley & Its) then chemically coupled to activated peroxidase (Boehringer Mannheim Biochemica ref. 1428861) according to the supplier's recommendations.
The test is based on the adsorption of sigma70 on an ELISA plate for 12 hours at 4° C. (6 pmoles of protein diluted in 100 μl of PBS per well, on Nunc-immuno plates, Maxisorp.). The protein dilutions and the buffers were optimized in order to reduce the non-specific bond of the RNA polymerase. After washing the plate with PBS 0.1% tween20, the plate is saturated with 200 μl of PBS 0.1% tween20, 1% BSA then incubated for 1 hour at ambient temperature with the RNA polymerase of E. coli (0.25 pmole of core RNA polymerase in 100 μl of PBS 0.1% tween 20, 1% BSA, 10 mM MgCl2) in the presence or in the absence of an optional inhibitor. […] The sigma70-RNA polymerase antibody complex is detected with a substrate of peroxidase, O-phenylenediamine, or another appropriate medium. […]
After three washings with 0.1% PBS-T (v/v), the peroxidase substrate is added (OPD, Biorad). The reaction takes place for 2 to 3 minutes in darkness then an absorbance measurement is carried out at 490 nm, after stopping the reaction with 50 μl of 4N H2SO4. […]

[4] = molecular target: bond between an antibody, for example 11D11, and the RNA polymerase (Escherichia coli, UniProt P0A7Z4+P0A8T7+P0A8V2); test: specificity: antibody-RNA polymerase bond; format: binding, E. coli
[5] = other strains tested, concentration not given

SMILES	diameter of inhibition, S aureus (S aureus; 500 μg/ml)	diameter of inhibition, S epidermidis (S epidermidis; 500 μg/ml)	diameter of inhibition, K12 (E. coli K12; 500 μg/ml)	inhibition of the bond between σ^70 and the RNA polymerase (in words) [3]	other results
O=C(/C=C/c1ccc(-c2cccc([N+](=O)[O-])c2)o1)c1cc2ccccc2o1 [5,768,818]	negative	negative	negative	–	–
O=C(/C=C/c1ccc(-c2ccc([N+](=O)[O-])cc2)o1)c1cc2ccccc2o1 [5,761,890]	negative	negative	negative	–	–
Cc1ccc(C)n1-c1ccc(OCC(=O)O)cc1 [compound 5,988,031]	–	–	–	most active; also recorded: inhibits	inhibition of the assembly of the α, β and β′ subunits (in words) [1]: not; inhibition of the growth of E. coli TG1 cells (in words) (E. coli TG1 cells): inhibits; activity on M. Luteus (in words) (M. Luteus): not active; inhibition of the bond between NusA and the RNA polymerase (in words) [2]: inhibits; IC50 ([3]; FIG. 1, σ^70 adsorbed on plate, core enzyme, antibody 11D11-peroxidase, read-out: concentration giving 50% inhibition of the bond between σ^70 and the RNA polymerase (converted)): ~20.4 µM; activity on S. aureus (in words) (S aureus; [5]): not active; activity on E. coli K12 (in words) (E. coli K12; [5]): not active; inhibition of the bond between an antibody (11D11) and the RNA polymerase (in words) [4]: not
CN[C@H](CC(C)C)C(=O)N[C@H]1C(=O)N[C@@H](CC(N)=O)C(=O)N[C@H]2C(=O)N[C@H]3C(=O)N[C@H](C(=O)N[C@H](C(=O)O)c4cc(O)cc(O)c4-c4cc3ccc4O)[C@H](O)c3ccc(c(Cl)c3)Oc3cc2cc(c3O[C@@H]2O[C@H](CO)[C@@H](O)[C@H](O)[C@H]2O[C@H]2C[C@](C)(N)[C@H](O)[C@H](C)O2)Oc2ccc(cc2Cl)[C@H]1O [vancomycin, reference compound]	–	–	–	–	diameter of inhibition, S aureus (S aureus; 50 μg/ml): 5 mm; diameter of inhibition, S epidermidis (S epidermidis; 50 μg/ml): 5 mm; diameter of inhibition, K12 (E. coli K12; 50 μg/ml): negative
COc1ccc(-c2ccc(/C=C/C(=O)c3cc4ccccc4o3)o2)cc1 [compound 5,858,445]	4.2 mm	4.2 mm	negative	most active	–
